Patent US6552235B2, “Process for the preparation of cyclohexanol” (Asahi Kasei Kabushiki Kaisha, priority 1999, dated 2003)
Where two headings read alike, the source gives them in different places.

Experiments:
[1] = cited from earlier work
[2] = Solvent conversion rate in batch-wise hydration reaction of cyclohexene (H-ZSM-5 zeolite-A); assay type: physicochemical; conditions: 120° C.; for Solvent convertion rate: H-ZSM-5-A, 20 g solvent
Description: The organic solvent used as a reaction solvent in the method of the present invention has a conversion rate of not more than 3% under the hydration reaction conditions of cyclohexene. The conversion rate of the organic solvent in the present invention is a conversion rate in the reaction of the organic solvent per se or the organic solvent with cyclohexene or cyclohexanol per 1 hour of batch reaction at the reaction temperature at which the hydration reaction of cyclohexene is carried out. In industrial working of the present invention, the solvent used for the reaction is separated from the product cyclohexanol and circulated for reuse.
30 g of the resulting H-ZSM-5 zeolite-A catalyst and 81 g of water were charged in a glass autoclave A and heated to 120° C. with stirring under application of a nitrogen pressure of 0.5 MPa. Separately, 61 g of cyclohexene and 20 g of isophorone were charged in a glass autoclave B and heated to 120° C. under application of a nitrogen pressure of 0.6 MPa. Thereafter, the cyclohexene/isophorone mixed liquid was sent under pressure from the glass autoclave B to the glass autoclave A, and the reaction was started. After the reaction for 1 hour, the stirring was stopped, and the oil phase was sampled and analyzed by gas chromatography. At the sampling, the reaction mixture separated to two phases of oil phase and aqueous phase immediately after stopping of stirring. Yield and selectivity of cyclohexanol were as follows.
The hydration reaction of cyclohexene was carried out in the same manner as in Example 1, except that ethylene glycol monophenyl ether, phenethyl alcohol and 3,3,5-trimethylcyclohexanone were respectively used as the reaction solvents. The results of the reactions are shown in Table 1, and characteristics of the organic solvents used in this Example are shown in Table 2.
The reaction was carried out in the same manner as in Example 1, except that benzyl alcohol was used as the solvent. Yield of cyclohexanol after each reaction time was as follows.

[3] = Liquid-liquid distribution coefficient of cyclohexene at 120° C. and solvent effect index; assay type: physicochemical; conditions: for Solvent effect index: distribution coefficient in solvent-free system/in solvent-containing system; for Distribution coefficient of cyclohexene: molar fraction in oil phase/aqueous phase, cyclohexene/cyclohexanol/organic solvent/water 56.7/13.3/30/100 by weight
Description: The organic solvent used in the present invention has a solvent effect index (defined below) of not less than 1.5. The solvent effect index in the present invention is defined to be a ratio of a distribution coefficient of cyclohexene in the absence of solvent at 120° C. and a distribution coefficient of cyclohexene in a solvent-containing system at 120° C. (distribution coefficient of cyclohexene in the absence of solvent/distribution coefficient of cyclohexene in a solvent-containing system), and it indicates an effect to make predominate the distribution of cyclohexene into an aqueous solution due to the presence of the organic solvent.
Detailedly, the solvent effect index in the present invention is obtained in the following manner. Cyclohexene/cyclohexanol/organic solvent/water are charged at a weight ratio of 56.7/13.3/30/100, and the distribution coefficient of cyclohexene (molar fraction of cyclohexene in oil phase/molar fraction of cyclohexene in aqueous phase) is obtained from the liquid composition of both phases of the oil phase and the aqueous phase in an equilibrium state kept at 120° C. The ratio of the resulting distribution coefficient of cyclohexene and the distribution coefficient of cyclohexene in a solvent-free system (measured at 120° C. by charging cyclohexene/cyclohexanol/water at a weight ratio of 56.7/13.3/100), namely, the ratio of distribution coefficient in solvent-free system/distribution coefficient in solvent-containing system, is the solvent effect index in the present invention.
Here, the distribution coefficient of cyclohexene is measured by the following method. That is, an oil and water at the above weight ratio are charged in a pressure container under a nitrogen pressure, and sufficiently stirred and mixed at a rising temperature of 120° C., followed by reducing the stirring speed and leaving at rest for a time long enough to reach an equilibrium state. Thereafter, each of the oil phase and the aqueous phase is sampled in a solvent such as 1,4-dioxane, and the compositions of both the oil phase and the aqueous phase are obtained from analysis by gas chromatography and a Karl Fischer moisture meter. Thus, the distribution coefficient of cyclohexene is measured.

[4] = Solvent conversion rate in continuous fixed-bed flowing hydration reaction of cyclohexene; assay type: physicochemical; conditions: fixed-bed flow; for Solvent conversion rate: 30 wt % solvent, 124-134° C., 2 MPa
Description: A continuous fixed-bed flowing reaction test of a cyclohexene hydration reaction was conducted under the following conditions using ethylene glycol monophenyl ether (EGMPE) as a reaction solvent. As a reaction apparatus, a stainless steel reaction vessel of 26.5 mm in internal diameter provided with a heating medium jacket was used. In the upper part of the reaction vessel, there were provided feed openings for water and oil, and in the lower part of the reaction vessel, oil and water in the mixed state were led to a reaction mixture storage tank through a pressure regulating valve, and oil and water were separated from each other in the reaction mixture storage tank. ZSM-5 zeolite (silica/alumina molar ratio=50) manufactured by Engelhard Co., Ltd. with addition of 20 wt % of an alumina binder was extrusion molded to a size of 1/16 inch in external diameter and 5 mm in length, and this was used as the catalyst. The height of the catalyst layer was 240 mm. The continuous reaction was carried out by an oil-water falling parallel flow sealing reaction method under the following conditions.
The oil phase discharged into the reaction mixture storage tank was analyzed by gas chromatography to obtain the results of the reaction. At the time of starting of the reaction, only cyclohexene was fed, and after a lapse of 20 hours from the starting of the reaction, the starting material was changed to a mixed liquid of cyclohexene/ethylene glycol monophenyl ether=70/30 (weight ratio), and thereafter the reaction was continued for 150 hours.

[5] = phenol-containing system, 120° C.; solvent-free system 3818; cited from earlier work

Structure (SMILES)	Solubility in water (25° C.) [1]	Solvent convertion rate ([2]; 1 hour)	Solvent effect index [3]	Distribution coefficient of cyclohexene [3]	further results
CC1CC(=O)CC(C)(C)C1 (centres unmarked) [3,3,5-Trimethylcyclohexanone]	0.80 g/100 ml	0.00%	2.14	1929	
OCCOc1ccccc1 [Ethylene glycol monophenyl ether, ethylene glycol monophenyl ether]	2.70 g/100 ml	0.70%	2.46	1681	Solvent conversion rate ([4]; reaction time 25 Hr): 0.84%; Solvent conversion rate ([4]; reaction time 80 Hr): 0.63%; Solvent conversion rate ([4]; reaction time 150 Hr): 0.42%; conversion rate to ethylene glycol cyclohexylphenyl ether ([4]; under the hydration reaction conditions): less than 1%
CC1=CC(=O)CC(C)(C)C1 [Isophorone]	1.2 g/100 ml	0.00%	2.19	1884	Solubility in water (25° C.) ([1]; listed as IPN): 1.20 g/100 ml; change of the solvent in the hydration reaction ([2]; H-ZSM-5 zeolite-A, 1 hour): showed no change
OCCc1ccccc1 [Phenethyl alcohol]	2.00 g/100 ml	0.35%	2.24	1846	
OCc1ccccc1 [benzyl alcohol, reference compound]					conversion rate of the reaction solvent to dibenzyl ether ([2]; H-ZSM-5 zeolite-A, after 1 hour): 11.4%; conversion rate of the reaction solvent to dibenzyl ether ([2]; H-ZSM-5 zeolite-A, after 2 hours): 16.0%
O=C1CCCCC1 [cyclohexanone, reference compound]					solubility in water [1]: 8.7%
Oc1ccccc1 [phenol]					cyclohexene distribution coefficient (concentration in oil phase mol %/aqueous phase mol %) [5]: 680
